These results are taken from the supplement of paper PMC11208160.

The data set can be described thus: recombinant UMI read abundance after kanamycin selection (control-corrected) (log10(CPM+1)); higher = more efficient recombination; extreme values may be limits of the assay; sequences stand for … in AGTGCAGAGAAAATCGGCCAGTTTTCTCTGCCTGCAGTCCGCATGCCGTGGGACCCCTTGGGTTCTAACCTGTTGCCTAGATTTATGCAGCGGACTGCCTTTCTCCCAAAGTGATAAACCGG…AGGTTGGTTTCACT; site = the 11-nt donor. Here is the method:
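Pooled E. coli donor-specificity screen for the IS621 bridge recombinase. Each library member carries a reprogrammed 11-nt donor and a full-length LE bridge RNA expressed in cis from the natural promoter, with a paired donor-binding loop (8-nt LDG + 4-nt RDG) and a target-binding loop fixed to T5. It is co-electroporated with a T5 target plasmid; recombinase is induced with 0.07 mM IPTG and recombinants are selected on kanamycin. UMIs are counted as CPM, averaged over two biological replicates and corrected by the unselected control. Molecule = full bridge RNA written as DNA, built from the T5 scaffold: LDG = donor specificity nt 1-8, RDG = reverse complement of nt 8-11.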
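Further: IS621 bridge recombinase in Escherichia coli cells against a fixed T5 target plasmid.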

In the case of “AAAACTGCATGGACCGGTTTTCCCGGTAATCCGTATTTGAA (site AAAACTGCTTT)”, the “recombinant UMI read abundance (log10)” value was 0.637. Under “AAAAGATCATGGACCGGTTTTCCCGGTAATCCGTATTTGGA (site AAAAGATCTTC)” stands 1.94; under “AAAAGATCATGGACCGGTTTTCCCGGTAATCCGTATTTGGC (site AAAAGATCTGC)”, 2.65.

For “AAACACGCATGGACCGGTTTTCCCGGTAATCCGTATTTGGG (site AAACACGCTCC)”, the “recombinant UMI read abundance (log10)” value was determined as 0.227. Under “AAACACGCATGGACCGGTTTTCCCGGTAATCCGTATTTGGG (site AACCACGCTCC)” stands 0.0138; under “AAACACGCATGGACCGGTTTTCCCGGTAATCCGTATTTGGG (site AAGCACGCTCC)”, 0.0101.

Take “AAACACGCATGGACCGGTTTTCCCGGTAATCCGTATTTGGG (site AATCACGCTCC)”: the “recombinant UMI read abundance (log10)” value stood at 0.0344. For “AAACAGACATGGACCGGTTTTCCCGGTAATCCGTATTTGGA (site AAACAGACTTC)”, the “recombinant UMI read abundance (log10)” value worked out at 0.991.

With “AAACGAACATGGACCGGTTTTCCCGGTAATCCGTATTTGTC (site AAACGAACTGA)”, the “recombinant UMI read abundance (log10)” value was 1.58.

As to “AAACGAACATGGACCGGTTTTCCCGGTAATCCGTATTTGTC (site ACACGAACTGA)”, the “recombinant UMI read abundance (log10)” value is 0.524.

In the case of “AAACGAACATGGACCGGTTTTCCCGGTAATCCGTATTTGTC (site AGACGAACTGA)”, the “recombinant UMI read abundance (log10)” value was 0. Under “AAACGAACATGGACCGGTTTTCCCGGTAATCCGTATTTGTC (site ATACGAACTGA)” stands 0.767; under “AAACGAGCATGGACCGGTTTTCCCGGTAATCCGTATTTGAG (site AAACGAGCTCT)”, 1.78; under “AAACGTCCATGGACCGGTTTTCCCGGTAATCCGTATTTGAT (site AAACGTCCTAT)”, 0.701. Under “AAACGTCCATGGACCGGTTTTCCCGGTAATCCGTATTTGAT (site AACCGTCCTAT)” stands 0.00727; under “AAACGTCCATGGACCGGTTTTCCCGGTAATCCGTATTTGAT (site AAGCGTCCTAT)”, 0.266; under “AAACGTCCATGGACCGGTTTTCCCGGTAATCCGTATTTGAT (site AATCGTCCTAT)”, 0.0129. Next, “AAAGACCCATGGACCGGTTTTCCCGGTAATCCGTATTTGGT (site AAAGACCCTAC)”: 1.02; “AAAGCGCCATGGACCGGTTTTCCCGGTAATCCGTATTTGTG (site AAAGCGCCTCA)”: 0.207.

As for “AAAGCGCCATGGACCGGTTTTCCCGGTAATCCGTATTTGTG (site CAAGCGCCTCA)”, the “recombinant UMI read abundance (log10)” value turned out to be 0.017.

In the case of “AAAGCGCCATGGACCGGTTTTCCCGGTAATCCGTATTTGTG (site GAAGCGCCTCA)”, the “recombinant UMI read abundance (log10)” value was 0.0199. Under “AAAGCGCCATGGACCGGTTTTCCCGGTAATCCGTATTTGTG (site TAAGCGCCTCA)” stands 0.019. Under “AAAGGCTCATGGACCGGTTTTCCCGGTAATCCGTATTTGCG (site AAAGGCTCTCG)” stands 2.61. Next, “AAAGTAACATGGACCGGTTTTCCCGGTAATCCGTATTTGCT (site AAAGTAACTAG)”: 2.89. As for “AAAGTAACATGGACCGGTTTTCCCGGTAATCCGTATTTGCT (site AACGTAACTAG)”, the “recombinant UMI read abundance (log10)” value was determined as 2.06. Under “AAAGTAACATGGACCGGTTTTCCCGGTAATCCGTATTTGCT (site AAGGTAACTAG)” stands 1.66; under “AAAGTAACATGGACCGGTTTTCCCGGTAATCCGTATTTGCT (site AATGTAACTAG)”, 2.1; under “AAAGTATCATGGACCGGTTTTCCCGGTAATCCGTATTTGCA (site AAAGTATCTTG)”, 2.86. Under “AAAGTATCATGGACCGGTTTTCCCGGTAATCCGTATTTGCA (site ACAGTATCTTG)” stands 2.64. Under “AAAGTATCATGGACCGGTTTTCCCGGTAATCCGTATTTGCA (site AGAGTATCTTG)” stands 2.83; under “AAAGTATCATGGACCGGTTTTCCCGGTAATCCGTATTTGCA (site ATAGTATCTTG)”, 2.62. In the case of “AAAGTATCATGGACCGGTTTTCCCGGTAATCCGTATTTGCT (site AAAGTATCTAG)”, the “recombinant UMI read abundance (log10)” value is 2.73. “AAAGTATCATGGACCGGTTTTCCCGGTAATCCGTATTTGCT (site ACAGTATCTTG)”: the “recombinant UMI read abundance (log10)” value was determined as 0.

Turning to “AAAGTGTCATGGACCGGTTTTCCCGGTAATCCGTATTTGAC (site AAAGTGTCTGT)”, the “recombinant UMI read abundance (log10)” value amounted to 2.37. Next, “AAAGTGTCATGGACCGGTTTTCCCGGTAATCCGTATTTGAC (site AACGTGTCTGT)”: 0. Consider “AAAGTGTCATGGACCGGTTTTCCCGGTAATCCGTATTTGAC (site AAGGTGTCTGT)”, for which the “recombinant UMI read abundance (log10)” value came out at 0.

In the case of “AAAGTGTCATGGACCGGTTTTCCCGGTAATCCGTATTTGAC (site AATGTGTCTGT)”, the “recombinant UMI read abundance (log10)” value turned out to be 0.497. Regarding “AAAGTTGCATGGACCGGTTTTCCCGGTAATCCGTATTTGAT (site AAAGTTGCTAT)”, the “recombinant UMI read abundance (log10)” value was found to be 2.62. Under “AAATCTACATGGACCGGTTTTCCCGGTAATCCGTATTTGTG (site AAATCTACTCA)” stands 0.209; under “AAATCTACATGGACCGGTTTTCCCGGTAATCCGTATTTGTG (site ACATCTACTCA)”, 0.0169. For the sequence “AAATCTACATGGACCGGTTTTCCCGGTAATCCGTATTTGTG (site AGATCTACTCA)”, the “recombinant UMI read abundance (log10)” value turned out to be 0.0155. Under “AAATCTACATGGACCGGTTTTCCCGGTAATCCGTATTTGTG (site ATATCTACTCA)” stands 0.0108; under “AACAAGACATGGACCGGTTTTCCCGGTAATCCGTATTTGAC (site AACAAGACTGT)”, 2.21. Under “AACAGTCCATGGACCGGTTTTCCCGGTAATCCGTATTTGAT (site AACAGTCCTAT)” stands 0.504; under “AACAGTCCATGGACCGGTTTTCCCGGTAATCCGTATTTGAT (site AACCGTCCTAT)”, 0.00935. On to “AACAGTCCATGGACCGGTTTTCCCGGTAATCCGTATTTGAT (site AACGGTCCTAT)”, for which the “recombinant UMI read abundance (log10)” value amounted to 0.0119.

As for “AACAGTCCATGGACCGGTTTTCCCGGTAATCCGTATTTGAT (site AACTGTCCTAT)”, the “recombinant UMI read abundance (log10)” value worked out at 0. Under “AACCAAACATGGACCGGTTTTCCCGGTAATCCGTATTTGAG (site AACCAAACTCT)” stands 1.48. On to “AACCAAGCATGGACCGGTTTTCCCGGTAATCCGTATTTGAG (site AACCAAGCTCT)”, for which the “recombinant UMI read abundance (log10)” value stood at 1.8. As to “AACCAAGCATGGACCGGTTTTCCCGGTAATCCGTATTTGAG (site ACCCAAGCTCT)”, the “recombinant UMI read abundance (log10)” value was 0.33. Under “AACCAAGCATGGACCGGTTTTCCCGGTAATCCGTATTTGAG (site AGCCAAGCTCT)” stands 0.217; under “AACCAAGCATGGACCGGTTTTCCCGGTAATCCGTATTTGAG (site ATCCAAGCTCT)”, 0.642.
